The values below come from US20230003717A1, “USE OF SYNAPTOTAGMIN-7 IN THE DIAGNOSIS AND TREATMENT OF BIPOLAR DISORDER” (TSINGHUA UNIVERSITY, priority 2020, published 2023).

Holding throughout (format): in vivo
Assay [1] deals with WT mice. Nature of the assay: forced swim test (FST), WT mice. As to conditions: 30 mg/kg intraperitoneal, night phase and day phase. The procedure: (§1) The 11 genes in the DG region of the mice were knocked down using shRNA virus. The mice were subject to a forced swim test (FST), and the immobility time of the mice was analyzed. The immobility time is an indicator that reflects the feeling of despair of the mice, and a longer immobility time indicates a more serious feeling of despair. The result is shown in panel C in FIG. 1.
(§2) The effect of clinical BD treatment lithium on behavioral abnormalities in Syt7 KO mice was then tested.

Assay [2] has as its system Syt7 KO mice. As to the kind of experiment: forced swim test (FST), Syt7 KO mice. As to conditions: 30 mg/kg intraperitoneal, night phase and day phase. The procedure:
as §1
The behaviors of Syt7 KO mice (i.e., Syt7-knockout mice) were then examined in the FST test.
Syt7 KO mice were first treated with the atypical antipsychotic olanzapine (OLZ) and observed for the dose dependence (administered with doses of 0.2 mg/kg, 0.5 mg/kg and 1.0 mg/kg) (using ANOVA statistical method). […] Without being limited by theory, this may be associated with an antidepressant effect of olanzapine in treating BD patients.
as §2

Assay [3] relates to Syt7 KO mice. Nature of the assay: light-dark box (LDB) test, Syt7 KO mice. The note with it: 30 mg/kg intraperitoneal, night phase and day phase. On the procedure: (§3) Since BD patients often had clinical symptoms of anxiety, a light-dark box (LDB) test was conducted to observe anxiety-like behaviors in the Syt7 KO mice.
(§4) Then, the LH/SPT/LDB behavioral paradigms were adopted for detecting the effect of high-dose olanzapine treatment (1.0 mg/kg) on abnormal behaviors of the Syt7 KO mice.
as §2

For assay [4], the system named is WT mice. As to the kind of experiment: learned helplessness (LH) test, WT mice. The note with it: 30 mg/kg intraperitoneal, night phase and day phase, vs untreated control. On the procedure: (§5) Considering that the FST/TS tests can not represent all the characterizations of human disease, a learned helplessness (LH) test and a sucrose preference test (SPT) were conducted. LH is associated with depression. In the LH test, the escape failure number of mice is an indicator for determining the depression of animal due to external pressure. A higher escape failure number indicates a more significant depression. SPT is associated with anhedonia. The proportion of sucrose preference of the mice can serve as an indicator for determining the anhedonia severity of the mice. A higher proportion of sweet preference indicates an enhancement in hedonic feeling.
as §4, §2

Assay [5] deals with WT mice. As to the kind of experiment: light-dark box (LDB) test, WT mice. As to conditions: 30 mg/kg intraperitoneal. On the procedure:
as §3, §4, §2

In assay [6] the test system is Syt7 KO mice. As to the kind of experiment: learned helplessness (LH) test, Syt7 KO mice. As to conditions: 30 mg/kg intraperitoneal, night phase and day phase, vs untreated control. The procedure: as §5, §4, §2
Assay [7] relates to Syt7 KO mice. Nature of the assay: sucrose preference test (SPT), Syt7 KO mice. As to conditions: 30 mg/kg intraperitoneal, night phase and day phase, vs untreated control. On the procedure: as §5, §4, §2
In assay [8] the test system is WT mice. As to the kind of experiment: sucrose preference test (SPT), WT mice. The note with it: 30 mg/kg intraperitoneal, night phase and day phase, vs untreated control. The procedure: as §5, §4, §2

Molecules are shown by their SMILES.

As to `O=C([O-])[O-].[Li+].[Li+]` [Li2CO3], the “immobility time in FST” value in the assay on WT mice [1] and with Syt7 KO mice [2] was “no effect” in each case. In addition, the results for the “time spent in the light compartment in the LDB test” value in the assay on Syt7 KO mice [3] and with WT mice [5] were “reducing the time spent in the light compartment” and “no effect on WT”, respectively. Besides, the “escape numbers in LH test” value with WT mice [4] and in the assay on Syt7 KO mice [6] was “increased escape numbers” throughout. The “sucrose preference (SPT)” value in the assay on Syt7 KO mice [7] and in the assay on WT mice [8] was “decreased sucrose preference” in each case.
